The test system of data set [1] is KMS-11. In words: Antiproliferative activity against human KMS11 cells over-expressing GFP after 72 hrs by CellTiter-Glo assay. It is filed as functional, cell-based. As to conditions: KMS-11, 72 h. (In ATP-based viability assays light output follows the ATP content of the culture.)
In data set [2] the test system is KMS-11. In words: Cytotoxicity against human KMS11 cells after 72 hrs by AnnexinV/DAPI staining-based flow cytometric analysis. It is filed as functional, cell-based. In general terms: In flow cytometry, cells or beads pass a laser one at a time.
Data set [3] has as its target T1, Solute carrier family 2, facilitated glucose transporter member 4 (Homo sapiens) (UniProt P14672).
T1 sequence (whole entry): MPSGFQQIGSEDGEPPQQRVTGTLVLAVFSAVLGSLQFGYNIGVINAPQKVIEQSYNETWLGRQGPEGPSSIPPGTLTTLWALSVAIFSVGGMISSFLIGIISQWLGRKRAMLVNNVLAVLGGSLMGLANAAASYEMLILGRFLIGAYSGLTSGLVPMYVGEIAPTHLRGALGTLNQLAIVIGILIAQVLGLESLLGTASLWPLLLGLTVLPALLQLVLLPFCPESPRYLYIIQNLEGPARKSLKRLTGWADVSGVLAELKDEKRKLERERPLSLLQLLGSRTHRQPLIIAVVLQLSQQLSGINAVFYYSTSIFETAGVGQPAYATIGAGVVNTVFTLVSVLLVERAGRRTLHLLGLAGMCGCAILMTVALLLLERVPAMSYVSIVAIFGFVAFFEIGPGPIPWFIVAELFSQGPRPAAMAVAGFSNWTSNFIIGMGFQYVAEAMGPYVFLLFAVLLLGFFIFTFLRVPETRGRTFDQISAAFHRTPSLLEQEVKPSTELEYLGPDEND
Nature of the data set: Antagonist activity at GLUT4 in human JJN3 cells assessed as reduction in [3H]2-deoxy-D-glucose uptake preincubated for 5 to 6 mins followed by [3H]2-deoxy-D-glucose addition measured after 4 to 6 mins. It is filed as cell-based.

Data set [4] has as its system JJN-3. Nature of the data set: Antiproliferative activity against human JJN-3 cells transfected with GLUT4 shRNA assessed as growth inhibition at 15 uM aftter 72 hrs by trypan blue dye-based cell counting analysis. Type of data set: functional.
Data set [5] concerns the target T2, GLUT1 (solute carrier family 2, facilitated glucose transporter member 1) (Rattus norvegicus, UniProt P11167).
T2 sequence (P11167 whole entry): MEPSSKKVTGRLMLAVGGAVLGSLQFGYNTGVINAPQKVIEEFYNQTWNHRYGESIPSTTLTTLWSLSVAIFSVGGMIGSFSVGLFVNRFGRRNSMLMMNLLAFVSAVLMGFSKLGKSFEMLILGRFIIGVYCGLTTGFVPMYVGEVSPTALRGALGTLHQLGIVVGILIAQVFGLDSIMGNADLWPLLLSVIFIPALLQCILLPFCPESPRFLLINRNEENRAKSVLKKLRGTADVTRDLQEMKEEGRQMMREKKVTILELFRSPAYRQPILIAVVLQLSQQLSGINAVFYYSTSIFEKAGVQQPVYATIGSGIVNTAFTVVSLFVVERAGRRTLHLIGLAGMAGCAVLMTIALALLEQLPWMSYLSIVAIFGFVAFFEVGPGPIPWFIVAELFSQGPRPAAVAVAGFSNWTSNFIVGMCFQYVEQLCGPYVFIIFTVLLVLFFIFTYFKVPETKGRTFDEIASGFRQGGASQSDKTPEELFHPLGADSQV
Nature of the data set: Displacement of ATB-BMPA from rat C-terminal 6His/Myc-tagged GLUT1 expressed in HEK293 cell low density microsome assessed as ATB-BMPA binding level at 20 uM preincubated for 10 mins followed by ATB-BMPA addition measured after 10 mins relative to control. It is filed as cell-based. As to conditions: probe ATB-BMPA, read-out: Activity.

In data set [6] the target is T1, Solute carrier family 2, facilitated glucose transporter member 4 (Homo sapiens). In words: Antagonist activity at GLUT4 in human L363 cells assessed as reduction in MCL-1 protein expression at 15 uM after 18 hrs by immunoblot analysis. It is filed as cell-based. In general terms: Immunoblotting shows a protein as a band on a membrane.
The target is the same in data set [7]. In words: Antagonist activity at GLUT4 in human JJN-3 cells assessed as reduction in MCL-1 protein expression at 15 uM after 18 hrs by immunoblot analysis. Type of data set: cell-based.
Data set [8] shares this target. Nature of the data set: Antagonist activity at GLUT4 in multiple myeloma patient derived CD38+ and phyocerythrin-negative myeloma cells assessed as increase in sensitivity to dexamethasone-induced cytotoxicity by measuring cell death at 10 uM after 48 hrs by CellTiter-Glo assay.
Data set [9] relates to Bone marrow cell. Nature of the data set: Cytotoxicity in multiple myeloma patient derived CD38(-)/CD45(-) non-myeloma bone marrow cells at 10 uM in presence of dexamethasone incubated for 48 hrs by CellTiter-Glo assay. Type of data set: cell-based. To be noted: human.

SMILES strings stand for the structures. The source made the active and inactive calls. The rule behind the calls is not given here.

For orientation: IC50 means the point on the concentration scale where inhibition reaches its midpoint. Take `COc1ccc(CC(=O)N(Cc2ccncc2)Cc2cccc(OCCc3ccc(F)cc3)c2)cc1`: in data set [1], the IC50 is 13.4 µM. Besides, in [2], the Activity result was “Active”. For the same molecule, the inhibition result in data set [3], in data set [6] and in data set [8] was “Active” throughout. Besides, the Activity entry in data set [4] is “inactive”. In addition, in [5], the activity at 10 min, 20 µM worked out at 35%. The inhibition result in data set [7] is “inactive”. Also, the Activity result in data set [9] is recorded as “Non-Toxic”.
